According to patent US20260200849A1, “CATIONIC LIPIDS AND PREPARATION METHOD THEREOF” (RiboX Therapeutics HK Limited, priority 2024, published 2026):
“And” between values parts separate entries of the source, which are not always exact repeats. Identical values can stand only once. Like-named read-outs stand apart in the source and are kept apart here.

Columns and labels:
C57BL/6J mice [1] = test: In vivo expression by ID, whole-body/injection site skin/lymph node luminescence; conditions: intradermal 0.15 mg/kg, 72 h post injection, female C57BL/6J mice N=3, Formulation 001, RNA 331
Protocol: 7-8 week old, female C57BL/6J mice (N=3) were injected with 0.15 mg*kg−1 of RNA-LNPs encoding for firefly-luciferase by intradermal injection. At 72-hours post injection, animals were intraperitoneally injected with 15 mg/mi of Luciferin substrate and whole-body/injection site skin/lymph node luminescence were determined by a bioluminescent in vivo imaging system (IVIS).

Balb/c mice = test: In vivo expression by IV, 0.05 mg/kg luciferase RNA-LNPs, IVIS luminescence; conditions: female Balb/c mice, 0.05 mg*kg−1 intravenous; for Whole body at 24 h (p/s) (Mean) / Whole body at 72 h (p/s) (Mean): Formulation No. 010, RNA No. 331; for Whole body at 24 h (p/s) (Mean): 24 hours post injection; for Whole body at 72 h (p/s) (Mean): 72 hours post injection
Outline: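 IVIS bioluminescence was read after IP luciferin (15 mg/ml): whole-body at 24 and 72 h, or whole-body/liver/spleen at 24 h. Dosing was a single IV injection of 0.05 mg*kg−1 RNA-LNPs encoding firefly luciferase into 7-8 week old female Balb/c mice, N=3.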

MCP-1 = test: In vivo tolerability by IM: serum MCP-1 by Luminex; conditions: IM 1.0 mg/kg, male C57BL/6J mice N=3, Formulation 001, RNA 331
Protocol: (§1) 6-8 week old, male C57BL/6J mice (N=3) were injected with 1.0 mg*kg−1 of RNA-LNPs encoding for firefly-luciferase by intramuscular injection. At 2- and 24-hours post injection, about 40 μL blood was harvested and immediately added to the procoagulant containing tube. Stand for 30 min at room temperature and then centrifuged at 2500 g×10 min to obtain serum. About 15 μL serum samples were aliquoted for cytokine (MCP-1 and IL-6) detection by Luminex (ProcartaPlex Mouse 2-plex, Thermo). PBS group as negative control.

Hep G2 cells [2] = test: In vitro toxicity: Hep G2 cell viability by CellTiter-Glo; type: cell-based; conditions: 72 hours post transfection, cell only = 100%
Protocol: 2E5 Hep G2 cells were transfected with 1 μg/mL RNA-LNPs. At 72 hours post transfection, cell viability (2-well repeat) was determined with the CellTiter-Glo® reagent kit, according to the kit protocol, measured by a luminometer. Cell only as control (100%).
The cell viability was calculated according to the following formula: […]

[3] = LNP size and polydispersity index (PDI) by dynamic light scattering (Zetasizer); type: physicochemical; conditions: for Size (nm): RNA No. 331
Protocol: (§2) The LNP size and polydispersity index (PDI), determined by dynamic light scattering (DLS), and zeta potential were measured by a Zetasizer machine (Malvern). RNA concentration and encapsulation efficacy (EE %) were analyzed by the Quant-IT Ribogreen kit by calculating the percentage encapsulation at 100%—(RNA-LNPs/RNA-LNPs with Triton X-100).

C57BL/6J mice [4] = test: In vivo expression by IM, luciferase RNA-LNPs, whole-body/injection site muscle/organ luminescence; conditions: IM 1.0 mg/kg, 24 h post injection, male C57BL/6J mice N=3, Formulation 001, RNA 331
Protocol: 6-8 week old, male C57BL/6J mice (N=3) were injected with 1.0 mg*kg−1 of RNA-LNPs encoding for firefly-luciferase by intramuscular injection. At 24-hours post injection, animals were intraperitoneally injected with 15 mg/ml of Luciferin substrate and whole-body/injection site muscle/liver/spleen/kidney/heart/lung luminescence were determined by a bioluminescent in vivo imaging system (IVIS).

Hep G2 cells [5] = test: In vitro expression: luciferase activity in Hep G2 cells transfected with RNA-LNPs; type: cell-based; conditions: 100 ng/mL RNA-LNPs, 72 hours post transfection
Protocol: 2E5 Hep G2 cells were transfected with 100 ng/mL of RNA-LNPs encoding for firefly-luciferase. At 72 hours post transfection, the cells were washed and lysed. The luciferase expression (2-well repeat) was determined in the cell lysates with the luciferase assay reagent kit (Promega), according to the kit protocol, luciferase activity was measured by a luminometer.

[6] = RNA encapsulation efficacy (EE %) by Quant-IT Ribogreen kit; type: physicochemical; conditions: LNP
Protocol: as §2

IL-6 = test: In vivo tolerability by IM: serum IL-6 by Luminex; conditions: IM 1.0 mg/kg, male C57BL/6J mice N=3, Formulation 001, RNA 331
Protocol: as §1

[7] = In vivo lipid metabolism by IV: ionizable lipid concentration in plasma and liver by LC-MS/MS; set-up: species or system Sprague-Dawley (SD) rats; conditions: IV 0.15 mg/kg RNA-LNPs (hEPO), male SD rats, individual animals N=3; for concentration at 6 h / concentration at 1 h / concentration at 168 h: male, Sprague-Dawley, rat, iv, 0.15 mg/kg
Outline: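 Male SD rats, 7-8 weeks old (N=3), given 0.15 mg*kg−1 hEPO-encoding RNA-LNPs IV. Plasma sampled at 1, 6, 96 and 168 h and liver at 6 and 168 h terminally; ionizable lipid quantified by LC-MS/MS, LLOQ 1 ng/mL plasma, 11 ng/g liver.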

[8] = 1 μg/mL RNA-LNPs, Formulation 001, RNA 331
[9] = Formulation No. 010, RNA No. 331, 1 μg/mL RNA-LNPs
[10] = Formulation No. 001, RNA No. 019 (hEPO)
[11] = Formulation No. 001, RNA No. 331
[12] = Formulation No. 010 (Ionizable lipid:DSPC:cholesterol:DSPE-PEG2000 = 38:30:30:2, N/P 6)
[13] = Formulation No. 010, RNA No. 331
[14] = Formulation No. 010, RNA No. 331 (firefly-luciferase)
[15] = liver, 6 h post injection, read-out: Liver (ng/g), ionizable lipid concentration
[16] = Formulation No. 001, RNA No. 331, 24-hours post injection

Structure (SMILES): CCCCC/C=C\C/C=C\CCCCCCCC(=O)NC(COC(=O)NCCN1CCCCC1)C(=O)OCCCCCCCC(=O)OC(CCCCCCCC)CCCCCCCC (stereo not shown) [Lipid 549]
- Injection site Skin (p/s) (C57BL/6J mice [1]): 3.41E+06 p/s
- Lymph node (p/s) (C57BL/6J mice [1]): 3.17E+06 p/s
- Whole body (p/s) (C57BL/6J mice [1]): 4.38E+07 p/s
- Whole body at 24 h (p/s) (Mean) (Balb/c mice): 2.75E+08 p/s
- Whole body at 72 h (p/s) (Mean) (Balb/c mice): 7.85E+07 p/s
- MCP-1 at 2 h (MCP-1): 299 pg/mL
- MCP-1 at 24 h (MCP-1): 3980 pg/mL
- In vitro cell viability (%) (Mean) (Hep G2 cells [2]; [8]): 79.09%
- In vitro cell viability (%) (Mean) (Hep G2 cells [2]; [9]): 88.89%
- PDI [3, 10]: 0.04
- Size [3, 10]: 64.53 nm
- PDI [3, 11]: 0.04
- Size [3, 11]: 61.34 nm
- Size (nm) [3, 12]: 57.35 nm
- PDI [3, 13]: 0.13
- Heart (p/s) (C57BL/6J mice [4]): 8.09E+05 p/s
- Injection site muscle (p/s) (C57BL/6J mice [4]): 2.75E+08 p/s
- Kidney (p/s) (C57BL/6J mice [4]): 1.23E+07 p/s
- Liver (p/s) (C57BL/6J mice [4]): 1.76E+08 p/s
- Lung (p/s) (C57BL/6J mice [4]): 1.24E+06 p/s
- Spleen (p/s) (C57BL/6J mice [4]): 6.26E+07 p/s
- Whole body (p/s) (C57BL/6J mice [4]): 1.10E+09 p/s
- In vitro Expression (Mean) (Hep G2 cells [5]; Formulation 001, RNA 331): 7.02E+05
- In vitro Expression (Mean) (Hep G2 cells [5]; [14]): 5.75E+05
- EE (%) [6, 10]: 94.25%
- EE (%) [6, 11]: 94.58%
- EE (%) [6, 13]: 96.68%
- IL-6 at 2 h (IL-6): 27 pg/mL
- IL-6 at 24 h (IL-6): 146 pg/mL

Structure (SMILES): CCCCCCCC/C=C\CCCCCCCC(=O)NC(COC(=O)NCCN1CCCCC1)C(=O)OCCCCCCCCOC(=O)C(CCCCCC)CCCCCCCC (stereo not shown) [Lipid 700]
- Injection site Skin (p/s) (C57BL/6J mice [1]): 1.75E+07 p/s
- Lymph node (p/s) (C57BL/6J mice [1]): 1.57E+06 p/s
- Whole body (p/s) (C57BL/6J mice [1]): 8.00E+07 p/s
- Whole body at 24 h (p/s) (Mean) (Balb/c mice): 3.40E+08 p/s
- Whole body at 72 h (p/s) (Mean) (Balb/c mice): 1.34E+08 p/s
- MCP-1 at 2 h (MCP-1): 281 pg/mL
- MCP-1 at 24 h (MCP-1): 3270 pg/mL
- In vitro cell viability (%) (Mean) (Hep G2 cells [2]; [8]): 78.82%
- In vitro cell viability (%) (Mean) (Hep G2 cells [2]; [9]): 99.10%
- PDI [3, 10]: 0.06
- Size [3, 10]: 68.99 nm
- PDI [3, 11]: 0.06
- Size [3, 11]: 62.57 nm
- Size (nm) [3, 12]: 55.29 nm
- PDI [3, 13]: 0.07
- Heart (p/s) (C57BL/6J mice [4]): 1.79E+05 p/s
- Injection site muscle (p/s) (C57BL/6J mice [4]): 3.07E+08 p/s
- Kidney (p/s) (C57BL/6J mice [4]): 9.03E+05 p/s
- Liver (p/s) (C57BL/6J mice [4]): 8.73E+07 p/s
- Lung (p/s) (C57BL/6J mice [4]): 3.11E+05 p/s
- Spleen (p/s) (C57BL/6J mice [4]): 1.21E+07 p/s
- Whole body (p/s) (C57BL/6J mice [4]): 5.65E+08 p/s
- In vitro Expression (Mean) (Hep G2 cells [5]; Formulation 001, RNA 331): 7.16E+05
- In vitro Expression (Mean) (Hep G2 cells [5]; [14]): 3.61E+05
- Plasma (ng/mL), ionizable lipid concentration ([7]; 1 h post injection): 1272 ng/mL and 1635 ng/mL
- Liver (ng/g), ionizable lipid concentration ([7]; 6 h post injection): 25720 ng/g and 25028 ng/g
- Plasma (ng/mL), ionizable lipid concentration ([7]; 6 h post injection): 359 ng/mL and 641 ng/mL and 966 ng/mL
- Plasma (ng/mL), ionizable lipid concentration ([7]; 96 h post injection): 5.84 ng/mL and 4.4 ng/mL and 28.6 ng/mL
- Liver (ng/g), ionizable lipid concentration ([7]; 168 h post injection): 696.6 ng/g and 191.6 ng/g and 236.8 ng/g
- Plasma (ng/mL), ionizable lipid concentration ([7]; 168 h post injection): 1.24 ng/mL and 9.51 ng/mL
- concentration at 6 h [7, 15]: 26800 ng/g
- concentration at 1 h ([7]; plasma, 1 h post injection): 1440 ng/mL
- EE (%) [6, 10]: 96.00%
- EE (%) [6, 11]: 94.45%
- EE (%) [6, 13]: 96.73%
- IL-6 at 2 h (IL-6): 15 pg/mL
- IL-6 at 24 h (IL-6): 143 pg/mL

Structure (SMILES): CCCCCCCCC(CCCCCC)C(=O)OCCCCCCCCOC(=O)NC(COC(=O)NCCN1CCCCC1)C(=O)OCCCCCCCCOC(=O)C(CCCCCC)CCCCCCCC (stereo not shown) [Lipid 888]
- Liver (p/s) (Mean) (Balb/c mice; [16]): 2.18E+08 p/s
- Spleen (p/s) (Mean) (Balb/c mice; [16]): 7.61E+07 p/s
- Whole body (p/s) (Mean) (Balb/c mice; [16]): 1.35E+09 p/s
- In vitro cell viability (%) (Mean) (Hep G2 cells [2]; Formulation No. 001, RNA No. 331, 1 μg/mL RNA-LNPs): 89.73%
- Size (nm) ([3]; Formulation No. 001 (Ionizable lipid:DSPC:cholesterol:DMG-PEG2000 = 50:10:38.5:1.5, N/P 6)): 62.46 nm
- PDI [3, 10]: 0.05
- Size [3, 10]: 59.39 nm
- PDI [3, 11]: 0.01
- In vitro Expression (Mean) (Hep G2 cells [5]; Formulation No. 001, RNA No. 331 (firefly-luciferase)): 4.84E+05
- Plasma (ng/mL), ionizable lipid concentration ([7]; 1 h post injection): 1635 ng/mL and 1440 ng/mL
- Liver (ng/g), ionizable lipid concentration ([7]; 6 h post injection): 31120 ng/g and 47483 ng/g
- Plasma (ng/mL), ionizable lipid concentration ([7]; 6 h post injection): 966 ng/mL and 975 ng/mL
- Plasma (ng/mL), ionizable lipid concentration ([7]; 96 h post injection): 28.6 ng/mL (2×) and 12.9 ng/mL
- Liver (ng/g), ionizable lipid concentration ([7]; 168 h post injection): 2277 ng/g and 2814 ng/g
- Plasma (ng/mL), ionizable lipid concentration ([7]; 168 h post injection): 9.51 ng/mL and 8.26 ng/mL
- concentration at 6 h [7, 15]: 48800 ng/g
- concentration at 168 h ([7]; liver, 168 h post injection, read-out: Liver (ng/g), ionizable lipid concentration): 1640 ng/g
- concentration at 1 h ([7]; plasma, 1 h post injection): 1640 ng/mL
- concentration at 6 h ([7]; plasma, 6 h post injection, read-out: Plasma (ng/mL), ionizable lipid concentration): 966 ng/mL
- concentration at 168 h ([7]; plasma, 168 h post injection, read-out: Plasma (ng/mL), ionizable lipid concentration): 9.51 ng/mL
- EE (%) [6, 10]: 97.48%
- EE (%) [6, 11]: 93.81%
